Data taken from BindingDB's records for patent US20240051954 (Novartis, 2024).

Molecular target: T1, Cyclic GMP-AMP synthase [147-522] (Homo sapiens, UniProt Q8N884)
T1 construct: 147-522
Experiment: Quantification of cGAS Protein Inhibition
Experimental: The enzyme solution was transferred into the reagent buffer to give a final concentration of 30 nM. […] The reaction plates were then centrifuged at 1000 rpm for 1 minute and incubated at room temperature for 1 h. […] The concentration of cGAMP was measured on a LC-MS/MS system consisting of a THERMO Dionex Ultimate LC system with a high pressure pump, an autosampler, a column heating compartment (Reinach, Switzerland) and a SCIEX Triple Quad 5500 (Framingham, MA, USA) mass spectrometer for detection. The sample plates were centrifuged for 10 minutes at 2000 rpm. Up to three plates were placed in the autosampler for injection. […] An isocratic flow of 1.0 mL/min solvent (60% ACN, 8 mM ammonium acetate, 5 mM ammonium hydroxide, 0.04% acetic acid) was applied and sprayed into the ion source of the mass spectrometers. The MS parameters were optimized based on the properties of the compounds to be detected and run in positive multi-reaction mode (MRM) based on the mass transitions. LC and MS parameters were also optimized to allow for a sample-to-sample measuring time of approximately 75 sec and a run time of 8 hours per 384-well plate. All data were analyzed with Excel; and the dose response curves were generated using the auto fitting function of XLfit.

T1 sequence (Q8N884 147-522): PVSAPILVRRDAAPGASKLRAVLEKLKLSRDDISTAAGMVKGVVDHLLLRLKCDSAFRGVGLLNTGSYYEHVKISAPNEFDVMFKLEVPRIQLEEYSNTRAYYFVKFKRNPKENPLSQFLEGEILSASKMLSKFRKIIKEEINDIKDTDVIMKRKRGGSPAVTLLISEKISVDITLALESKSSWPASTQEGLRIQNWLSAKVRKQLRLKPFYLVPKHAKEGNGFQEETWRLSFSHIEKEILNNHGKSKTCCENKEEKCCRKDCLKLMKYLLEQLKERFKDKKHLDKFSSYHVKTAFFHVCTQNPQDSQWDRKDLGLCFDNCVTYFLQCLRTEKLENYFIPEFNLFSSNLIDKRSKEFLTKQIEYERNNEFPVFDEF

With `COc1nc2c(-n3ccnc3)c(-c3nnc(C(O)C(F)F)[nH]3)n(C)c2cc1Cl` (stereo unspecified) [US20240051954, Example 21] the IC50 was 121 nM.
